From patent publication US20100068208A1, “Degranulation inhibitor” (priority 2005, published 2010)

Legend:
TGR12 = tested on: TGR12; parameters: species or system human; settings: CHO-TGR12GFP, 200 pM [125I]-rCST14 (Y0), 4° C. 2 hours; read-out: IC50 (competitive binding, Hill plot analysis)
Protocol: [^125I]-Labeled rat cortistatin-14 (Tyr0) (hereinafter [^125I]-rCST14 (Y0)) used for the competitive binding assay was prepared as follows. After 3 nmol/6 μL of rCST14 (Y0) (Funakoshi Co.), 6 μL of 10 μg/mL lactoperoxidase (in 0.1M HEPES (pH 7, 4)), 6 μL of 0.001% H2O2 and 6 μL of 37 MBq NaI (6 μL of 15 mg/100 mL NaI was used in cold run) were mixed, the mixture was reacted at room temperature for 20 minutes. […] For fractionation, TSKgel ODS-80™ was used, 10% MeCN/0.1% TFA was used as eluant A and 60% MeCN/0.1% TFA was used as eluant B at a gradient of 0-25 (2 mins.), 25-27.5 (3 mins.) and 27.5-35 (60 mins.), respectively; and the flow rate was 1 mL/min.
CHO/dhfr^− cells (hereinafter CHO) were incubated in α-MEM (Invitrogen) supplemented with 10% fetal calf serum. […]
The binding assay using CHO-TGR12GFP was performed as follows. […] After washing 3 times with 500 μL of the assay buffer, the cells were lysed in 250 μL of 0.5N NaOH and the lysate was recovered for measurement of the radioactivity.

human TGR12 = molecular target: T1, human TGR12 (Homo sapiens, UniProt Q96LB1); experiment: Intracellular calcium increasing activity in RBL2H3-TGR12 (FLIPR); format: cell-based
T1 construct: expressed in transfected cells
T1 sequence (Q96LB1 1-330): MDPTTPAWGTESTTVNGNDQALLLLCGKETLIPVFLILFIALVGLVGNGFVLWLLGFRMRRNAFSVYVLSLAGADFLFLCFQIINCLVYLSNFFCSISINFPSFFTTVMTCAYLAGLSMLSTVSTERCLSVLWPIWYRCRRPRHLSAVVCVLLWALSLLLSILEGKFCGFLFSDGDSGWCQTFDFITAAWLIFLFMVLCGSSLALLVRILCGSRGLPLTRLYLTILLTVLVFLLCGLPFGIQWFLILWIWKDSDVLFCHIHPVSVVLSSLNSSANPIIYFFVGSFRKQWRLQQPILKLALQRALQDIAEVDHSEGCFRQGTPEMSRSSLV
Protocol: (§1) RBL-2H3 (hereinafter RBL2H3) was incubated in α-MEM (Invitrogen) supplemented with 10% fetal calf serum. Vector plasmid pcDNA3.1 for animal cell expression, in which the nucleotide sequence containing the initiation codon to the termination codon of human TGR12 (DNA having the nucleotide sequence represented by SEQ ID NO: 32) was incorporated, was stably expressed in RBL-2H3 to establish human TGR12-expressed RBL-2H3 cell line (hereinafter RBL2H3-TGR12). RBL2H3-TGR12 was incubated in α-MEM (Invitrogen) supplemented with 10% fetal calf serum and 200 μg/mL of Geneticin.
(§2) The intracellular calcium increasing activity was assayed as follows. RBL2H3 and RBL2H3-TGR12 were plated in a 96-well plate at a density of 40,000 cells/well and incubated overnight. The medium was then discarded and 100 μL/well of 4 μM Fluo3-AM (Dojin Kagaku)-containing assay buffer [Hank's Balanced Salt Solution (Invitrogen), 20 mM HEPES (Dojin Kagaku) and 2.5 mM Probenecid (Sigma)] was added. The mixture was allowed to stand for an hour at 37° C. Various TGR12 (Peptide Institute, Inc.) or calcium ionophore A23187 (Wako Pure Chemical) was diluted in 0.05% CHAPS-containing assay buffer. After the cells were washed with the assay buffer, fluorescence emitted with changes in intracellular calcium was measured using FLIPR (Molecular Device). A sample, 50 μL, was added at a rate of 50 μL/sec. 10 seconds after initiation of the assay. Fluorescence was measured every 1 second during the first 60 seconds and every 6 seconds during the next 120 seconds. The highest fluorescence intensity during 3 minutes was made the maximum activity under the stimulation conditions, which was taken as an average of 3 wells. The EC50 values were calculated using Graphpad PRISM 4 (Graphpad Software).

RBL-2H3 = experiment: Intracellular calcium increasing activity in RBL2H3 (FLIPR); format: cell-based; parameters: unit not given here
Protocol: as §1, §2

| SMILES | IC50 (TGR12) [nM] | maximum activity in the calcium increasing effect (human TGR12; RBL2H3-TGR12, 1 nM) | maximum activity in the calcium increasing effect (human TGR12; RBL2H3-TGR12, 10 nM) | maximum activity in the calcium increasing effect (human TGR12; RBL2H3-TGR12, 100 nM) | maximum activity in the calcium increasing effect (human TGR12; RBL2H3-TGR12, 1 μM) | maximum activity in the calcium increasing effect (human TGR12; RBL2H3-TGR12, 10 μM) | maximum activity in the calcium increasing effect (RBL-2H3; RBL2H3, 1 nM) | maximum activity in the calcium increasing effect (RBL-2H3; RBL2H3, 10 nM) | maximum activity in the calcium increasing effect (RBL-2H3; RBL2H3, 100 nM) | maximum activity in the calcium increasing effect (RBL-2H3; RBL2H3, 1 μM) | maximum activity in the calcium increasing effect (RBL-2H3; RBL2H3, 10 μM) |
| --- | --- | --- | --- | --- | --- | --- | --- | --- | --- | --- | --- |
| CC[C@H](C)[C@H](NC(=O)[C@H](CO)NC(=O)[C@H](CC(N)=O)NC(=O)[C@H](CC(C)C)NC(=O)[C@H](Cc1ccc(O)cc1)NC(=O)[C@H](CCCCN)NC(=O)[C@H](CCCCN)NC(=O)[C@@H](NC(=O)[C@H](C)NC(=O)[C@H](CCSC)NC(=O)[C@H](CCC(N)=O)NC(=O)[C@H](CCCCN)NC(=O)[C@H](CCCNC(=N)N)NC(=O)[C@H](CC(C)C)NC(=O)[C@H](CCCNC(=N)N)NC(=O)[C@@H](NC(=O)[C@H](Cc1ccc(O)cc1)NC(=O)[C@H](CC(N)=O)NC(=O)[C@H](CC(=O)O)NC(=O)[C@@H](NC(=O)[C@H](Cc1ccccc1)NC(=O)[C@@H](NC(=O)[C@H](C)NC(=O)[C@H](CC(=O)O)NC(=O)[C@H](CO)NC(=O)[C@@H](N)Cc1c[nH]cn1)C(C)C)[C@@H](C)O)[C@@H](C)O)C(C)C)C(=O)N[C@@H](CC(C)C)C(=O)N[C@@H](CC(N)=O)C(N)=O [VIP, vasoactive intestinal polypeptide] | 2040 |  |  |  |  |  |  |  |  |  |  |
| CC[C@H](C)[C@H](NC(=O)CNC(=O)[C@H](CC(=O)O)NC(=O)[C@H](CO)NC(=O)[C@@H](N)Cc1c[nH]cn1)C(=O)N[C@@H](Cc1ccccc1)C(=O)N[C@H](C(=O)N[C@@H](CC(=O)O)C(=O)N[C@@H](CO)C(=O)N[C@@H](Cc1ccc(O)cc1)C(=O)N[C@@H](CO)C(=O)N[C@@H](CCCNC(=N)N)C(=O)N[C@@H](Cc1ccc(O)cc1)C(=O)N[C@@H](CCCNC(=N)N)C(=O)N[C@@H](CCCCN)C(=O)N[C@@H](CCC(N)=O)C(=O)N[C@@H](CCSC)C(=O)N[C@@H](C)C(=O)N[C@H](C(=O)N[C@@H](CCCCN)C(=O)N[C@@H](CCCCN)C(=O)N[C@@H](Cc1ccc(O)cc1)C(=O)N[C@@H](CC(C)C)C(=O)N[C@@H](C)C(=O)N[C@@H](C)C(=O)N[C@H](C(=O)N[C@@H](CC(C)C)C(N)=O)C(C)C)C(C)C)[C@@H](C)O [PACAP-27] | 264 | 40 | 29 | 5300 | 11494 | 12667 | 47 | 37 | 63 | 59 | 45 |
| CC(C)C[C@H](NC(=O)[C@H](C)NC(=O)[C@H](Cc1c[nH]c2ccccc12)NC(=O)[C@H](CCCCN)NC(=O)[C@H](CC(N)=O)NC(=O)[C@H](Cc1c[nH]c2ccccc12)NC(=O)[C@H](CCCCN)NC(=O)[C@H](CCCCN)NC(=O)[C@H](CCCNC(=N)N)NC(=O)[C@@H](N)Cc1ccccc1)C(=O)N[C@@H](CO)C(=O)N[C@@H](CCCNC(=N)N)C(N)=O [PAMP-12, proadrenomedullin N-terminal 20 peptide (9-20)] |  | 41 | 2088 | 11110 | 12039 | 12331 | 52 | 52 | 35 | 44 | 43 |
| CSCC[C@H](NC(=O)[C@H](CCCNC(=N)N)NC(=O)[C@@H](N)CC(=O)O)C(=O)N1CCC[C@H]1C(=O)N[C@H]1CSSC[C@@H](C(=O)N[C@@H](CCCCN)C(=O)O)NC(=O)[C@H](CO)NC(=O)[C@H](CO)NC(=O)[C@H](Cc2ccccc2)NC(=O)[C@H]([C@@H](C)O)NC(=O)[C@H](CCCCN)NC(=O)[C@H](Cc2c[nH]c3ccccc23)NC(=O)[C@H](Cc2ccccc2)NC(=O)[C@H](Cc2ccccc2)NC(=O)[C@H](CC(N)=O)NC(=O)[C@H](CCCNC(=N)N)NC1=O [cortistatin-17] |  | −2 | 33 | 1574 | 11193 | 12762 | 67 | 78 | 54 | 49 | 52 |
